As a reminder, the IC50 is the concentration needed to halve the response being measured.

Results on twelve molecules are retold here after patent publication US20080233127A1, “IMIDAZOLOPYRIMIDINE ANALOGS AND THEIR USE AS PI3 KINASE AND MTOR INHIBITORS” (Wyeth, priority 2007, published 2008).

The target of assay [1] is T1, human TOR (Homo sapiens, UniProt P42345).
T1 construct: FLAG
Description: mTOR enzyme assay (DELFIA format, purified FLAG-TOR, His6-S6K substrate). It counts as biochemical. The conditions noted are these: 100 μM ATP, 1.25 μM His6-S6K, 2 hours at room temperature; read-out: TOR Kinase Median IC50.

For assay [2], the target named is PI3 Kinase. Description: PI3K fluorescence polarization assay. The class given is biochemical. The conditions noted are these: 25 μM ATP, diC8-PI(4,5)P2 substrate, 1 hour at 25° C.; read-out: PI3 Kinase Median IC50. In general terms: Fluorescence polarisation rises when a labelled molecule tumbles more slowly, as on binding a larger partner.
Description: Nunc 384 well black polypropylene fluorescent plates are used for PI3K assays. Reactions are quenched by the addition of EDTA to a final concentration of 10 mM. Final reaction volumes are 10 μl. […] Reactions are allowed to proceed for one hour at 25° C. After 1 hour, GST-tagged GRP1 (general receptor for phosphoinositides) PH domain fusion protein is added to a final concentration of 100 nM, and BODIPY-TMRI(1,3,4,5)P4 (Echelon) is also added to a final concentration of 5 nM. Final sample volumes are 25 μl with a final DMSO concentration of 0.8%. Assay Plates are read on Perkin-Elmer Envision plate readers with appropriate filters for Tamra [BODIPY-TMRI(1,3,4,5)P4].

Take `OCc1cccc(-c2nc(N3CCOCC3)c3ncn(C4CCN(Cc5cccc(N6CCOCC6)n5)CC4)c3n2)c1` [Compound 72, [3-(6-morpholin-4-yl-9-{1-[(6-morpholin-4-ylpyridin-2-yl)methyl]piperidin-4-yl}-9H-purin-2-yl)phenyl]methanol]: the IC50 in assay [1] was found to be 1800 nM; in assay [2], 99 nM.

Turning to `OCc1cccc(-c2nc(N3CCOCC3)c3ncn(C4CCN(Cc5c[nH]c6ccc(F)cc56)CC4)c3n2)c1` [Compound 73, [3-(9-{1-[(5-fluoro-1H-indol-3-yl)methyl]piperidin-4-yl}-6-morpholin-4-yl-9H-purin-2-yl)phenyl]methanol], the IC50 in assay [1] was determined as 1300 nM; in assay [2], 30 nM.

On to `OCc1cccc(-c2nc(N3CCOCC3)c3ncn(C4CCN(Cc5cnc6n5CCOC6)CC4)c3n2)c1` [Compound 74, (3-{9-[1-(5,6-dihydro-8H-imidazo[2,1-c][1,4]oxazin-3-ylmethyl)piperidin-4-yl]-6-morpholin-4-yl-9H-purin-2-yl}phenyl)methanol], for which the IC50 in assay [1] came to 2000 nM; in assay [2] it was 94 nM.

With `CN(C)CCCOc1ccc(CN2CCC(n3cnc4c(N5CCOCC5)nc(-c5cccc(CO)c5)nc43)CC2)cc1` [Compound 75], the IC50 in assay [1] was more than 4000 nM; in assay [2], 16 nM.

With `Oc1cccc(-c2nc(N3CCOCC3)c3ncn(C4CCN(Cc5ccccn5)CC4)c3n2)c1` [Compound 77, 3-{6-morpholin-4-yl-9-[1-(pyridin-2-ylmethyl)piperidin-4-yl]-9H-purin-2-yl}phenol], the results for the IC50 in assay [1] and in assay [2] were 290 nM and 156 nM, respectively.

Take `Oc1cccc(-c2nc(N3CCOCC3)c3ncn(C4CCN(Cc5ccc(Cl)nc5)CC4)c3n2)c1` [Compound 78, 3-(9-{1-[(6-chloropyridin-3-yl)methyl]piperidin-4-yl}-6-morpholin-4-yl-9H-purin-2-yl)phenol]: the figures for the IC50 in assay [1] and in assay [2] were 200 nM and 37 nM, respectively.

As for `COc1ccc(CN2CCC(n3cnc4c(N5CCOCC5)nc(-c5cccc(O)c5)nc43)CC2)cn1` [Compound 79, 3-(9-{1-[(6-methoxypyridin-3-yl)methyl]piperidin-4-yl}-6-morpholin-4-yl-9H-purin-2-yl)phenol], the IC50 was 51 nM in assay [1] and 55 nM in assay [2].

Turning to `Oc1cccc(-c2nc(N3CCOCC3)c3ncn(C4CCN(Cc5ccc(N6CCOCC6)nc5)CC4)c3n2)c1` [Compound 82, 3-(6-morpholin-4-yl-9-{1-[(6-morpholin-4-ylpyridin-3-yl)methyl]piperidin-4-yl}-9H-purin-2-yl)phenol], the figures for the IC50 in assay [1] and in assay [2] were 145 nM and 55 nM, respectively.

Turning to `CN(C)c1ccc(CN2CCC(n3cnc4c(N5CCOCC5)nc(-c5cccc(O)c5)nc43)CC2)c2ccccc12` [Compound 83, 3-[9-(1-{[4-(dimethylamino)-1-naphthyl]methyl}piperidin-4-yl)-6-morpholin-4-yl-9H-purin-2-yl]phenol], the IC50 in assay [1] amounted to 360 nM; in assay [2], 83 nM.

As to `Oc1cccc(-c2nc(N3CCOCC3)c3ncn(C4CCN(Cc5ccc(F)nc5)CC4)c3n2)c1` [Compound 84, 3-(9-{1-[(6-fluoropyridin-3-yl)methyl]piperidin-4-yl}-6-morpholin-4-yl-9H-purin-2-yl)phenol], the figures for the IC50 in assay [1] and in assay [2] were 310 nM and 70 nM, respectively.

Take `Oc1cccc(-c2nc(N3CCOCC3)c3ncn(CCN4CCCCC4)c3n2)c1` [Compound 85, 3-[6-morpholin-4-yl-9-(2-piperidin-1-ylethyl)-9H-purin-2-yl]phenol]: the IC50 in assay [1] came to 9800 nM; in assay [2] it was 163 nM.

Consider `OCc1cccc(-c2nc(N3CCOCC3)c3ncn(CCN4CCCCC4)c3n2)c1` [Compound 86, {3-[6-morpholin-4-yl-9-(2-piperidin-1-ylethyl)-9H-purin-2-yl]phenyl}methanol], for which the IC50 in assay [1] was 13000 nM; in assay [2], 91 nM.
